Data taken from US10414811B2, “Protease-resistant lipidated GLP-1 analogs” (MEDIMMUNE LIMITED, priority 2015, dated 2019).
Read-outs that look alike come from different tables or passages of the source. Numbered stars: 1 amine (or outer) side, 2 acyl side, 3 side chain; on linkers, the order of the positions; unused ones are H or OH. Square brackets hold non-standard residues; d marks the D form. Side chains are listed from the residue outwards. Peptide text beside a SMILES is read from it. * marks the point of attachment. γGlu = O=C(O)[C@H](CCC(=O)[*:2])N[*:1]; Palmitoyl = CCCCCCCCCCCCCCCC(=O)*; αMeF = C[C@](N)(Cc1ccccc1)C(=O)O; αMeK = C[C@](N)(CCCCN)C(=O)O; αMeS = C[C@](N)(CO)C(=O)O; Aib = CC(C)(N)C(=O)O

Legend:
Type in all cases: cell-based
GLP-1R (INS1e assay) = biological target: T1, GLP-1R (INS1e assay) (Rattus norvegicus, UniProt P32301); experiment: INS1e assay, cAMP activity at GLP-1R; settings: mono-lipidated peptides
T1 construct: endogenous in cells; host or cells: INS-1E cells
T1 sequence (P32301 22-463): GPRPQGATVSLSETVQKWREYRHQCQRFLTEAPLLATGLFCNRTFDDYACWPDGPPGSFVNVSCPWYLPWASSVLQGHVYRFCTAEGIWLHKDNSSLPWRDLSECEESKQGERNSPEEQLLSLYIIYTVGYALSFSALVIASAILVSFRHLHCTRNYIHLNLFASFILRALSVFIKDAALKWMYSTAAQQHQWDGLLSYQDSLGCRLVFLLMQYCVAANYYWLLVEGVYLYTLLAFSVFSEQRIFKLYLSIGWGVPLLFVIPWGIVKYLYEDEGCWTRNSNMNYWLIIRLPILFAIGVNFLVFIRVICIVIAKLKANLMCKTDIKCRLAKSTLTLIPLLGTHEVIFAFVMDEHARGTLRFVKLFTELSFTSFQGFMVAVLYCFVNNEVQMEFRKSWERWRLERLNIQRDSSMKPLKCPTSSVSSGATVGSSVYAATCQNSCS
Outline: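 cAMP was quantified by two-step HTRF, using anti-cAMP cryptate donor and cAMP-d2 acceptor, each diluted 1/20 in conjugate and lysis buffer. EC50 values of the synthetic peptides were derived from the cAMP readout.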

[1] = biological target: T2, human glucagon receptor (GCGR) (Homo sapiens, UniProt P47871); experiment: cAMP assay, human GCGR cells; settings: cAMP assay
T2 construct: expressed in transfected cells
Outline: (§1)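 Peptide-stimulated cAMP measured by two-step HTRF after a 30 min room-temperature incubation with receptor-expressing cells (hGLP-1R, hGIPR at 1×10^5 cells/ml; hGCGR at 2×10^5 cells/ml). Duplicate dilutions; EC50 from 4-parameter logistic fit of % Delta F.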

[2] = biological target: T3, human glucose-dependent insulinotropic peptide receptor (GIPR) (Homo sapiens, UniProt P48546); experiment: cAMP assay, human GIPR cells; settings: cAMP assay
T3 construct: expressed in transfected cells
T3 sequence (P48546 22-466): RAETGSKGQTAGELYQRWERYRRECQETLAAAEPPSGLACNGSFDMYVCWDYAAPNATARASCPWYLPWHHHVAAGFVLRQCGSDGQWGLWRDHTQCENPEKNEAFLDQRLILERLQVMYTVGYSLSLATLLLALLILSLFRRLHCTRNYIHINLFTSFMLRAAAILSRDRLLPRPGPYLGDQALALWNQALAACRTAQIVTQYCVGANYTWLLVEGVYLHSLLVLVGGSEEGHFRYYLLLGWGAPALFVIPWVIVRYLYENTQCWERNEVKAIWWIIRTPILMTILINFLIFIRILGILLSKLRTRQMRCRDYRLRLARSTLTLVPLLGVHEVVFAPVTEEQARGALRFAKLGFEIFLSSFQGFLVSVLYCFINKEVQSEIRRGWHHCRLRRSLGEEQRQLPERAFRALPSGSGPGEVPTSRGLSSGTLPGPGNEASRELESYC
Outline: as §1

[3] = mean of n1 and n2, read-out: INS1e assay EC50 Mean pM GLP-1R
[4] = replicate n1, read-out: INS1e assay EC50 GLP-1R n1
[5] = replicate n2, read-out: INS1e assay EC50 GLP-1R n2
[6] = first determination (n1), read-out: Primary assay EC50 Gluc-R (n1)
[7] = second determination (n2), read-out: Primary assay EC50 Gluc-R (n2)
[8] = first determination (n1), read-out: Primary assay EC50 GIP-R (n1)
[9] = second determination (n2), read-out: Primary assay EC50 GIP-R (n2)

T2 sequence (P47871 26-477): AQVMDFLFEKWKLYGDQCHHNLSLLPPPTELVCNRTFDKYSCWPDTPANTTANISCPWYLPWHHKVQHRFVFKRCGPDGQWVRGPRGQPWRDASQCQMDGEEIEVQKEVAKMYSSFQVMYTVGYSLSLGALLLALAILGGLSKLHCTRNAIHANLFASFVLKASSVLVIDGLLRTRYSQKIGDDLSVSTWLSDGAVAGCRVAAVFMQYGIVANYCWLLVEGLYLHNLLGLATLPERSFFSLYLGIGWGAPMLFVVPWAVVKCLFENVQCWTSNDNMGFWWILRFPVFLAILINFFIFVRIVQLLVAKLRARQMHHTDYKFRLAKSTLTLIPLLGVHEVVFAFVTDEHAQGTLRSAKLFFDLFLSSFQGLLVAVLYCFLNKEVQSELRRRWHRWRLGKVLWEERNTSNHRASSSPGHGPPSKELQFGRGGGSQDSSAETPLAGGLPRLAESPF

EC50 (GLP-1R (INS1e assay); [3]) | EC50 (GLP-1R (INS1e assay); [4]) | EC50 (GLP-1R (INS1e assay); [5]) | EC50 [1, 6] | EC50 [1, 7] | EC50 [2, 8] | EC50 [2, 9] | SMILES
13 pM | 16 pM | 10.5 pM | ≥ 31 nM | ≥ 31 nM | ≥ 31 nM | ≥ 31 nM | CC[C@H](C)[C@H](NC(=O)[C@](C)(Cc1ccccc1)NC(=O)[C@H](CCC(=O)O)NC(=O)[C@](C)(CCCCN)NC(=O)[C@H](C)NC(=O)[C@H](C)NC(=O)[C@H](CCC(=O)O)NC(=O)CNC(=O)[C@H](CCC(=O)O)NC(=O)[C@H](CC(C)C)NC(=O)[C@](C)(Cc1ccccc1)NC(=O)[C@H](CO)NC(=O)[C@](C)(CO)NC(=O)[C@@H](NC(=O)[C@H](CC(=O)O)NC(=O)[C@H](CO)NC(=O)[C@@H](NC(=O)[C@](C)(Cc1ccccc1)NC(=O)[C@H](CO)NC(=O)CNC(=O)[C@H](CCC(=O)O)NC(=O)C(C)(C)NC(=O)[C@@H](N)Cc1c[nH]cn1)[C@@H](C)O)C(C)C)C(=O)N[C@@H](C)C(=O)N[C@@](C)(Cc1ccccc1)C(=O)N[C@H](C(=O)N[C@H](C(=O)N[C@@H](CCC(=O)O)C(=O)NCC(=O)NCC(N)=O)C(C)C)C(C)C [compound 43] (H-H[Aib]EGS[αMeF]TSDV[αMeS]S[αMeF]LEGEAA[αMeK]E[αMeF]IA[αMeF]VVEGG-NH2)
560 pM | 455 pM | 665 pM | ≥ 27 nM | ≥ 27 nM | ≥ 27 nM | ≥ 27 nM | CCCCCCCCCCCCCCCC(=O)N[C@@H](CCC(=O)NCCCC[C@H](NC(=O)[C@H](CCC(=O)O)NC(=O)[C@H](CC(C)C)NC(=O)[C@](C)(Cc1ccccc1)NC(=O)[C@H](CO)NC(=O)[C@](C)(CO)NC(=O)[C@@H](NC(=O)[C@H](CC(=O)O)NC(=O)[C@H](CO)NC(=O)[C@@H](NC(=O)[C@](C)(Cc1ccccc1)NC(=O)[C@H](CO)NC(=O)CNC(=O)[C@H](CCC(=O)O)NC(=O)C(C)(C)NC(=O)[C@@H](N)Cc1c[nH]cn1)[C@@H](C)O)C(C)C)C(=O)N[C@@H](CCC(=O)O)C(=O)N[C@@H](C)C(=O)N[C@@H](C)C(=O)N[C@@](C)(CCCCN)C(=O)N[C@@H](CCC(=O)O)C(=O)N[C@@](C)(Cc1ccccc1)C(=O)N[C@H](C(=O)N[C@@H](C)C(=O)N[C@@](C)(Cc1ccccc1)C(=O)N[C@H](C(=O)N[C@H](C(=O)N[C@@](C)(CCCCN)C(=O)NCC(=O)NCC(N)=O)C(C)C)C(C)C)[C@@H](C)CC)C(=O)O [compound 84] (H-H[Aib]EGS[αMeF]TSDV[αMeS]S[αMeF]LEK([γGlu-Palmitoyl])EAA[αMeK]E[αMeF]IA[αMeF]VV[αMeK]GG-NH2)
1110 pM | 1610 pM | 610 pM | ≥ 26 nM | ≥ 25.6 nM | ≥ 26 nM | ≥ 25.6 nM | CC[C@H](C)[C@H](NC(=O)[C@](C)(Cc1ccccc1)NC(=O)[C@H](CCC(=O)O)NC(=O)[C@](C)(CCCCN)NC(=O)[C@H](C)NC(=O)[C@H](C)NC(=O)[C@H](CCC(=O)O)NC(=O)CNC(=O)[C@H](CCC(=O)O)NC(=O)[C@H](CC(C)C)NC(=O)[C@H](CCCCNC(=O)COCCOCCNC(=O)COCCOCCNC(=O)CC[C@H](NC(=O)CCCCCCCCCCCCCCCCC(=O)O)C(=O)O)NC(=O)[C@H](CO)NC(=O)[C@](C)(CO)NC(=O)[C@@H](NC(=O)[C@H](CC(=O)O)NC(=O)[C@H](CO)NC(=O)[C@@H](NC(=O)[C@](C)(Cc1ccccc1)NC(=O)[C@H](CO)NC(=O)CNC(=O)[C@H](CCC(=O)O)NC(=O)C(C)(C)NC(=O)[C@@H](N)Cc1c[nH]cn1)[C@@H](C)O)C(C)C)C(=O)N[C@@H](C)C(=O)N[C@@](C)(Cc1ccccc1)C(=O)N[C@H](C(=O)N[C@H](C(=O)N[C@@](C)(CCCCN)C(=O)NCC(=O)NCC(N)=O)C(C)C)C(C)C [compound 116]
